Activity calls are given as the source filed them.
How the values were obtained:
[1] = biological target: T1, Calpain-2 catalytic subunit (Sus scrofa, UniProt P43367); assay: m-calpain protease blockers, concentration series – biochemical, fluorogenic peptide substrate, dose response (AID 1420); format: functional
T1 sequence (P43367 whole entry): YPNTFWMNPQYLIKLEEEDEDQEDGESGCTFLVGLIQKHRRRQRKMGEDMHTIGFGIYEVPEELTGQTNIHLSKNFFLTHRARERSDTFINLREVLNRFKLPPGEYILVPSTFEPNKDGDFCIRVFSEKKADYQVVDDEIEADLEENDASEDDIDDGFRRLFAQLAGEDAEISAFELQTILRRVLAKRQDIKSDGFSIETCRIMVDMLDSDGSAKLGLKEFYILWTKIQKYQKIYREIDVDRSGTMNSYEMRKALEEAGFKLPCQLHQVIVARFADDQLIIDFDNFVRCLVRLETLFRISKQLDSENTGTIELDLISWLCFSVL

[2] = biological target: T2, Zinc finger protein mex-5 (Caenorhabditis elegans, UniProt Q9XUB2); assay: potency of MEX-5 RNA-binding blockers – biochemical, C. elegans, fluorescence polarization, dose response (AID 1960)
T2 sequence (Q9XUB2 whole entry): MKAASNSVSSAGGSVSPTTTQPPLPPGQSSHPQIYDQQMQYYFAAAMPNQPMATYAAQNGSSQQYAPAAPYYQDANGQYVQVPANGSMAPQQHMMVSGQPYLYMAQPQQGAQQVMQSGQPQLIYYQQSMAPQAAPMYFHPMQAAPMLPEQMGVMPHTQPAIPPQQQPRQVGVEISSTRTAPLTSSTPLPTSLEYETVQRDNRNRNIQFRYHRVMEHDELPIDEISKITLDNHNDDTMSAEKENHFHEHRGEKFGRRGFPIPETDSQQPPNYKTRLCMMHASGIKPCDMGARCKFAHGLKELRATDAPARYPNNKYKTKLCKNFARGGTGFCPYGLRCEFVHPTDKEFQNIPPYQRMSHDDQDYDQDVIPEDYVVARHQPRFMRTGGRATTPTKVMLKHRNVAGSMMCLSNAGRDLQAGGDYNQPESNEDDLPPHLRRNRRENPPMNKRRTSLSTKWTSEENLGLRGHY

Genome polyprotein = Genome polyprotein (dengue virus type 2, UniProt P29990); assay: flavivirus cap methylation enzyme inhibition – biochemical, confirmation dose response, primary screen (AID 588689); format: functional
Sequence of Genome polyprotein (P29990 2492-3391 limits assumed): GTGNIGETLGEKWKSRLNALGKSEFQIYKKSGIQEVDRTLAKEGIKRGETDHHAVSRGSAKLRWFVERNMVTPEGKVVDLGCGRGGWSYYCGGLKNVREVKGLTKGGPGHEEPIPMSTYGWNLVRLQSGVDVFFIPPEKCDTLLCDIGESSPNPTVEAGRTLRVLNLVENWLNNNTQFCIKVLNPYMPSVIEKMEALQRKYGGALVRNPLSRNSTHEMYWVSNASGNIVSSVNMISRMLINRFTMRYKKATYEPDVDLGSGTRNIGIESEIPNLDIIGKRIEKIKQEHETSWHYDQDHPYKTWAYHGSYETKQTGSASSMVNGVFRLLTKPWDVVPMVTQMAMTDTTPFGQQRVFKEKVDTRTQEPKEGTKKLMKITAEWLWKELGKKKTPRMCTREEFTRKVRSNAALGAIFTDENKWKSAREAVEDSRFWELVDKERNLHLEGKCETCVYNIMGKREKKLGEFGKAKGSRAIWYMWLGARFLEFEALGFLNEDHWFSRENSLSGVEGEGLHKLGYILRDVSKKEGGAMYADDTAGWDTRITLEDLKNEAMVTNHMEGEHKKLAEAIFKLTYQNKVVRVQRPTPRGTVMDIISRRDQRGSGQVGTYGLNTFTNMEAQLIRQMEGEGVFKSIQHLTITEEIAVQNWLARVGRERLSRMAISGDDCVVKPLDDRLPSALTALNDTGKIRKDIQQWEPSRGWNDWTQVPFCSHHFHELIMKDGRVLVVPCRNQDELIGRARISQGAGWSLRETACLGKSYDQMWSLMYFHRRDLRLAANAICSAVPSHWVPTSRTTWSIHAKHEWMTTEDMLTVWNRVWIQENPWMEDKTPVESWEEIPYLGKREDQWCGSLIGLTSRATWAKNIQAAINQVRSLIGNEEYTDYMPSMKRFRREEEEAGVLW

[3] = biological target: T3, Histone-lysine N-methyltransferase NSD2 (Homo sapiens, UniProt O96028); format: biochemical
T3 sequence (O96028 whole entry): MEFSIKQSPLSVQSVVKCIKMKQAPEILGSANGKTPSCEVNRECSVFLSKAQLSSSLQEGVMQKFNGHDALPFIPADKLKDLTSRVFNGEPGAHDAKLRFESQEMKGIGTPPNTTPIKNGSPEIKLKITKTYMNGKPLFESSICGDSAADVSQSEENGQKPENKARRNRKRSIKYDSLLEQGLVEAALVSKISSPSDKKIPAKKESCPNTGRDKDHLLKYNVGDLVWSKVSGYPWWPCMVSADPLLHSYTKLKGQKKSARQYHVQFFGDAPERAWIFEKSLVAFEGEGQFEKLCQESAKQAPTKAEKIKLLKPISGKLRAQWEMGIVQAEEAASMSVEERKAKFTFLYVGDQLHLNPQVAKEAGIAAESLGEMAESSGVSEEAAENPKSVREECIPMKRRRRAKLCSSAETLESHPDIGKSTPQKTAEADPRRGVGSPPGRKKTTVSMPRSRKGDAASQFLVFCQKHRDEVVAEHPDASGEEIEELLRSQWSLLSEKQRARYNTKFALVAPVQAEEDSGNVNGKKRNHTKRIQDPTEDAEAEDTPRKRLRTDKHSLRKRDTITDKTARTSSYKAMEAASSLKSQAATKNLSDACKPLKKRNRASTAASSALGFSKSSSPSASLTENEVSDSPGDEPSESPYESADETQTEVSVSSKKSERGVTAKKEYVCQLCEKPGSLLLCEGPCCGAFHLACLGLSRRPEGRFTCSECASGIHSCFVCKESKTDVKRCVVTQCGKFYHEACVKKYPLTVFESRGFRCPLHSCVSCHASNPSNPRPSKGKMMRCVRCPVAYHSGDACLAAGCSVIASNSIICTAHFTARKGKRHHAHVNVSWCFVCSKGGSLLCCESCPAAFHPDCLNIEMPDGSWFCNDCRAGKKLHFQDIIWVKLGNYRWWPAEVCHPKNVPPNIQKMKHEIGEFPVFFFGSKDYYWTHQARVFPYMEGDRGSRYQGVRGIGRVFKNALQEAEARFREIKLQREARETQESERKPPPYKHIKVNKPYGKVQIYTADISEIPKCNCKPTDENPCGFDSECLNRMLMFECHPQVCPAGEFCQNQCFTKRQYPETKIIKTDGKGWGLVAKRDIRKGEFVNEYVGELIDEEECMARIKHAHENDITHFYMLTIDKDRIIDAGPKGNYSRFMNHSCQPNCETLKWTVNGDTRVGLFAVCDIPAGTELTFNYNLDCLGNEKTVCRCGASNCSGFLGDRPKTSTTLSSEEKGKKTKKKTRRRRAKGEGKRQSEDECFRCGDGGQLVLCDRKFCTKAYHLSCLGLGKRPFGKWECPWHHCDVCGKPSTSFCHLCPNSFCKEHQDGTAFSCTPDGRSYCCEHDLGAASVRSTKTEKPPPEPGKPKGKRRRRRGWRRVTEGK

[4] = biological target: RNA-editing ligase 1, mitochondrial (Trypanosoma brucei brucei, UniProt P86926); assay: inhibition of trypanosome RNA editing ligase – biochemical, fluorescence, Trypanosoma brucei, dose response (AID 1117295); format: functional
Sequence of RNA-editing ligase 1, mitochondrial (P86926 whole entry, the tested form may be a part): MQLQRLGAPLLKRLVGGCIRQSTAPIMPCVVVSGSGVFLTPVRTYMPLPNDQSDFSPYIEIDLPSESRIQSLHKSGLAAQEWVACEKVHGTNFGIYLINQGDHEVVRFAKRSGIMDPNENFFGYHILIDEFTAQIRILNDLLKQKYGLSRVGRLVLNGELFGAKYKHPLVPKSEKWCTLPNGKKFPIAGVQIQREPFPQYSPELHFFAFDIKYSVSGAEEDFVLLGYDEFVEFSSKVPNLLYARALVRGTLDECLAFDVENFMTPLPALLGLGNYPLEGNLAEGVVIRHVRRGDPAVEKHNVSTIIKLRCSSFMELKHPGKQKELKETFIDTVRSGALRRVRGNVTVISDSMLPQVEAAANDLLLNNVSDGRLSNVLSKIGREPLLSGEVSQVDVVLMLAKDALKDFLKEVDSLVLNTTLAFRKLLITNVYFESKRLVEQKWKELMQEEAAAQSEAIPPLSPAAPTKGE

[5] = biological target: T4, RNA-binding protein pos-1 (Caenorhabditis elegans, UniProt G5EF15); assay: disruptors of C. elegans POS-1 RNA interaction – biochemical, fluorescence polarization, dose response (AID 1964);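 also: purified POS-1 fused to maltose binding protein made in E. coli; potency of compounds blocking POS-1 binding to fluorescent RNA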
T4 sequence (G5EF15 whole entry): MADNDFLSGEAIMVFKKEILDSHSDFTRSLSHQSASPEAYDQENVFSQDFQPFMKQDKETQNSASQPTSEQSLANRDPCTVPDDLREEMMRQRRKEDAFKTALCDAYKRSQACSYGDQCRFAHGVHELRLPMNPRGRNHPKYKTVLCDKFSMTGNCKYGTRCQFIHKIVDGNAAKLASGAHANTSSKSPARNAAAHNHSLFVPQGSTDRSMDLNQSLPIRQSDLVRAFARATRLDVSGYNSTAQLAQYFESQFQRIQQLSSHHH

[6] = biological target: T5, Mannose-6-phosphate isomerase (Homo sapiens, UniProt P34949); assay: MPI inhibition at elevated mannose 6-phosphate – biochemical, fluorescence intensity, high mannose 6-phosphate, primary screen (AID 1220)
T5 sequence (P34949 whole entry): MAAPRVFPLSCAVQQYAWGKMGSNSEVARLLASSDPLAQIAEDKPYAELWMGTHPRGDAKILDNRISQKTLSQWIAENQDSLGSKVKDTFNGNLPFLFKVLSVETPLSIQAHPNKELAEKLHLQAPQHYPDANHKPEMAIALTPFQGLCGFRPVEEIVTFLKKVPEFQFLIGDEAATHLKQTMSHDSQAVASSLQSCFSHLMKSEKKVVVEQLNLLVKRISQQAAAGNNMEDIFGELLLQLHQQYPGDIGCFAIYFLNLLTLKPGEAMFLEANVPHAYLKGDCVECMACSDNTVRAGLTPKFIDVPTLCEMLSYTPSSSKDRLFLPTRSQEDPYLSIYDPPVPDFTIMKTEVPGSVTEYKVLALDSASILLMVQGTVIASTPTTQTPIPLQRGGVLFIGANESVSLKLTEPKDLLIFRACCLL

[7] = biological target: Sphingosine 1-phosphate receptor 2 (Homo sapiens, UniProt O95136); assay: Dose Response Cell Based Assay for Agonists of the S1P2 Receptor. [Related pubchem assays: 729, 736, 843 ]; format: functional
Sequence of Sphingosine 1-phosphate receptor 2 (O95136 whole entry): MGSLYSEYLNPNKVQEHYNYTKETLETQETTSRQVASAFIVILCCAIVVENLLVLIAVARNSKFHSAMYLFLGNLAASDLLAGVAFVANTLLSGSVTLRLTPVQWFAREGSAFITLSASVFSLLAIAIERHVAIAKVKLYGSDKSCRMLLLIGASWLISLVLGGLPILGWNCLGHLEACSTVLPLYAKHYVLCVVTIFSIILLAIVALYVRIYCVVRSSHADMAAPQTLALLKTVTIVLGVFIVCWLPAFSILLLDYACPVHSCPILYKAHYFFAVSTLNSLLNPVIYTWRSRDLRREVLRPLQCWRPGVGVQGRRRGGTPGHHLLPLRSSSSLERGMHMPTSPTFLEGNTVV

Aminopeptidase N = biological target: T6, Aminopeptidase N (Plasmodium falciparum FcB1/Columbia, UniProt O96935); assay: malaria alanyl aminopeptidase activity blockers – biochemical, fluorogenic H-Leu-NHMec substrate, 1536-well (AID 1445); set-up: species or system Plasmodium falciparum 3D7, 3D7
T6 sequence (O96935 whole entry): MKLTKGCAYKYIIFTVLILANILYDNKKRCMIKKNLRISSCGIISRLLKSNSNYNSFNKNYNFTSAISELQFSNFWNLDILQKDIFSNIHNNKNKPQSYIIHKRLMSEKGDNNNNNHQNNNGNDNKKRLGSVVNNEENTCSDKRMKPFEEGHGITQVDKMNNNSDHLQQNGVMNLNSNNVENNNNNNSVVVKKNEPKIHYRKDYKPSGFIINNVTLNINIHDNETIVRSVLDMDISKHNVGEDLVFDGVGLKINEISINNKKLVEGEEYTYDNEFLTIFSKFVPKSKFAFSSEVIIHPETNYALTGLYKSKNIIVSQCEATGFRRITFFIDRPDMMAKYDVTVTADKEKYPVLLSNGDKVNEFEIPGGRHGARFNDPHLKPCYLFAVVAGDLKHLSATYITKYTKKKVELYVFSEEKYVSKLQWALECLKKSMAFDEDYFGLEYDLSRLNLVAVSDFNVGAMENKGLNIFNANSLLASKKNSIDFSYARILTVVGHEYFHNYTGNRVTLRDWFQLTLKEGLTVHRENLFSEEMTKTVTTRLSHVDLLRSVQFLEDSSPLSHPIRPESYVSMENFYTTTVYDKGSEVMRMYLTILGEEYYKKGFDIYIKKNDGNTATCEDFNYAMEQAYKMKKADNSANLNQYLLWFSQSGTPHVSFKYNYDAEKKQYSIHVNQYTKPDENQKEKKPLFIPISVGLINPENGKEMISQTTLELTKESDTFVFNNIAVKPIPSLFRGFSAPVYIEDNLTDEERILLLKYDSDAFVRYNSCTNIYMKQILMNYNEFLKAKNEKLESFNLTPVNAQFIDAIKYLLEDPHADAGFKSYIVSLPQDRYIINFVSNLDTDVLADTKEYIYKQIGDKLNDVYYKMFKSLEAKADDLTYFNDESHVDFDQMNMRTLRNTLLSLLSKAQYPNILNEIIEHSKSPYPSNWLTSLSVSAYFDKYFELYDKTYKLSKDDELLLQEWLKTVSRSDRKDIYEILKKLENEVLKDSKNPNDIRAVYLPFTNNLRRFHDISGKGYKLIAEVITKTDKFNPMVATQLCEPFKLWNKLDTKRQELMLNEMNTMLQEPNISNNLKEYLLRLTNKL

[8] = biological target: Bifunctional protein GlmU (Mycobacterium tuberculosis, UniProt P9WMN3); assay: Inhibitors of Mycobacterial Glucosamine-1-phosphate acetyl transferase (GlmU). Secondary screen.; set-up: species or system Mycobacterium tuberculosis H37Rv
Sequence of Bifunctional protein GlmU (P9WMN3 whole entry, the tested form may be a part): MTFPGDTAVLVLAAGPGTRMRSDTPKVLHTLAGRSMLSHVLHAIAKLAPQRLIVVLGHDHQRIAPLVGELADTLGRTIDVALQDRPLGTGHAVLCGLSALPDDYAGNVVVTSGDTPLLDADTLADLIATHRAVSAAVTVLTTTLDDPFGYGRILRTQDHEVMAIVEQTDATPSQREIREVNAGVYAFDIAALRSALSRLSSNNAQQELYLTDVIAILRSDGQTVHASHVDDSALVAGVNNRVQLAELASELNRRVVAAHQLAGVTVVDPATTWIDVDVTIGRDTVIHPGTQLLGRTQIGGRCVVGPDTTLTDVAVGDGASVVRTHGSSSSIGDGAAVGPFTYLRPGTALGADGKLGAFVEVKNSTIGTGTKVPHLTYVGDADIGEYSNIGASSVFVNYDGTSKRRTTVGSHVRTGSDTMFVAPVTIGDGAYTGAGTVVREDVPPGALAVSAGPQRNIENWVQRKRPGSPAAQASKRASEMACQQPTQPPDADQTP

[9] = biological target: T7, Carboxy-terminal domain RNA polymerase II polypeptide A small phosphatase 1 (Homo sapiens, UniProt Q9GZU7); assay: CTDSP1 inhibitors, concentration-response, biochemical, absorbance readout, ultra-high-throughput screen actives (AID 540297); format: functional
T7 sequence (Q9GZU7 whole entry): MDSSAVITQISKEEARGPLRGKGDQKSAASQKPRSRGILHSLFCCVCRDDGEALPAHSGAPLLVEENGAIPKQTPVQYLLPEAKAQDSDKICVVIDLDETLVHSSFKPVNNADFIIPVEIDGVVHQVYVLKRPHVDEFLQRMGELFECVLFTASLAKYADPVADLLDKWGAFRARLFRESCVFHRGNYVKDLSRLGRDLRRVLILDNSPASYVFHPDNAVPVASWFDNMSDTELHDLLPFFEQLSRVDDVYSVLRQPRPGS

[10] = fluconazole-exposed Candida albicans growth modulators – fluorescence, retest, confirmation (AID 2467); format: functional, cell-based
[11] = NIH-3T3 fibroblast cytotoxicity, dose response, cytotoxicity control, cell-based, fluorescence, Alamar Blue, secondary assay (AID 2327); format: functional;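 also: NIH-3T3 mouse fibroblasts cultured with fluconazole at 8 µg/mL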
[12] = viability inhibitors of stage V gametocytes – luminescence, dose response (AID 1117278); format: functional, cell-based;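 also: gametocytes exposed to compound for 24 hours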
[13] = viability loss in human Jurkat cells – cell-based, luminescence, cytotoxicity control for P. falciparum gametocyte viability project, dose response (AID 1117277); format: functional;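 also: potency reflects loss of cellular ATP meaning fewer viable cells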

## CCOC(=O)c1ccc(CC(=O)c2ccc(O)c(O)c2O)o1
[1]
  IC50: > 50 µM (not active)
[2]
  EC50: 0.868 µM (active)
Genome polyprotein
  IC50: 33.6 µM (active)
[3]
  AC50: 17.3 µM (active)
[4]
  IC50: > 96.6 µM (inactive)
[5]
  EC50: 35.5 µM (active)
[6]
  IC50: 19.4 µM (active)

## c1ccc(OCCSc2nnnn2-c2ccccc2)cc1
[7]
  EC50: > 50 µM (not active)

## COC(=O)c1ccc(N2NC(=O)/C(=C/c3ccc(-c4ccc(Cl)c(C(=O)O)c4)o3)C2=O)cc1
Aminopeptidase N
  IC50: 28.6 µM (active)
Genome polyprotein
  IC50: 11.9 µM (active)
[8]
  IC50: 75.8 µM (active)
[9]
  IC50: 2.15 µM (active)
[10]
  EC50: > 38 µM (not active)
[11]
  EC50: > 150 µM (inconclusive)

## CSc1nccc(-c2cc(Cl)sc2Cl)n1
[12]
  IC50: > 109 µM (inactive)
[13]
  IC50: > 83.3 µM (inactive)
